According to US6900336B2, “8-aza-11-deoxy prostaglandin analogues” (Syntex (U.S.A.) LLC, priority 2001, dated 2005):

Tests used:
rEP1 Receptor = target: T1, rEP1 Receptor (UniProt P70597); assay: Competitive Binding Assay of [3H]PGE2 to rEP1 Receptor; conditions: 3 nM [3H]PGE2, membrane fraction, 1 hr at 30° C.; read-out: EP1, Ki
T1 sequence (P70597 1-405): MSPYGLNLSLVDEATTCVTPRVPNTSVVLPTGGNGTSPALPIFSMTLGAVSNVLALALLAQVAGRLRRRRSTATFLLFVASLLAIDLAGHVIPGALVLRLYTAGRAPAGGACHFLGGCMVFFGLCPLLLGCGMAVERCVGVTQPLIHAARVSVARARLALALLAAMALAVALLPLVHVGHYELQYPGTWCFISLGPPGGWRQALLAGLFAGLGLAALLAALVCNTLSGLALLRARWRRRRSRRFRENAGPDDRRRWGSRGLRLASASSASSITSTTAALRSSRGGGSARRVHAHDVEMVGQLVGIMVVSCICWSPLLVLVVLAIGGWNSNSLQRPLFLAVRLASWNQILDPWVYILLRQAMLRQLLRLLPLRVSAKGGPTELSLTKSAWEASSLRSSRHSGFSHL
Method: (§1) Competitive Binding Assay of [^3H]PGE2 to rEP1 or rEP3 Receptor
(§2) The cells were maintained in culture then harvested upon confluency. The membrane was prepared by two times of centrifugation (12,000× g for 15 min) following lysis of cells by polytron homogenization of 15 sec. in 10 volume of 20 mM Hepes pH 7.4 containing 1 mM EDTA, 10 mM MgCl2, 20 uM indomethacin at 4° C. […] Incubations were conducted for 1 hr at 30° C. prior to separation of the bound and free radioligand by rapid filtration. Residual [^3H]PGE2 bound to the filter was quantitated by liquid scintillation counting. The Ki of a compound was calculated by the program of one site binding calculation of Prism.

EP2 Receptor = target: T2, EP2 Receptor (Homo sapiens, UniProt P43116); assay: EP2 Ki (table under competitive [3H]PGE2 binding assay)
T2 construct: host or cells: unnamed cultured cells, membrane fraction

rEP3 Receptor = target: T3, rEP3 Receptor (UniProt P34980); assay: Competitive Binding Assay of [3H]PGE2 to rEP3 Receptor; conditions: 3 nM [3H]PGE2, membrane fraction, 1 hr at 30° C.; read-out: EP3, Ki
T3 sequence (P34980 1-365): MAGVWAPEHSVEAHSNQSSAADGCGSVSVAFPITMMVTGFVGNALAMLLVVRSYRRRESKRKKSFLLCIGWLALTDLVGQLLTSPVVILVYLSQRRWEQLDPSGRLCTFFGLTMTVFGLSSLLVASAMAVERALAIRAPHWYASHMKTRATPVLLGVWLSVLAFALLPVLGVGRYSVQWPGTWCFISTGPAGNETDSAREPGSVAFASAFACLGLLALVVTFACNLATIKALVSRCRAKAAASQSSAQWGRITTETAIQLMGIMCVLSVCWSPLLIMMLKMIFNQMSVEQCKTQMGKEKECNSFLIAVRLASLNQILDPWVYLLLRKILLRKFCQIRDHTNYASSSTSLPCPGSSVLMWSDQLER
Method: as §1
The cells were maintained in culture then harvested upon confluency. […] Incubations were conducted for 1 hr at 30° C. prior to separation of the bound and free radioligand by rapid filtration. Residual [^3H]PGE2 bound to the filter was quantitated by liquid scintillation counting. The Ki of a compound was calculated by the program of one site binding calculation of Prism.

EP4 Receptor = target: T4, EP4 Receptor (Homo sapiens, UniProt P35408); assay: EP4 Ki (table under competitive [3H]PGE2 binding assay)
T4 construct: host or cells: unnamed cultured cells, membrane fraction
Method: [Worded in the source for another target; this target is reported under the same test.] as §1, §2

T2 sequence (P43116 whole entry): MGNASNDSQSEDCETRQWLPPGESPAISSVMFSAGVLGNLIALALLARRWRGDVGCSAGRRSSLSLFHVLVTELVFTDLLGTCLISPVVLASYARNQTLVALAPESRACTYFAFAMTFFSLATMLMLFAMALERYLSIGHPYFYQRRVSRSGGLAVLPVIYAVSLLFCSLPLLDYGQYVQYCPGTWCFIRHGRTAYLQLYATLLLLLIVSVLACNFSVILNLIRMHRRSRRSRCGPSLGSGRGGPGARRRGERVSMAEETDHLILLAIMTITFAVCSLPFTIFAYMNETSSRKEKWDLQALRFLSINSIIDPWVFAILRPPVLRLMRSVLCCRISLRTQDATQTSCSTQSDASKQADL
T4 sequence (P35408 whole entry): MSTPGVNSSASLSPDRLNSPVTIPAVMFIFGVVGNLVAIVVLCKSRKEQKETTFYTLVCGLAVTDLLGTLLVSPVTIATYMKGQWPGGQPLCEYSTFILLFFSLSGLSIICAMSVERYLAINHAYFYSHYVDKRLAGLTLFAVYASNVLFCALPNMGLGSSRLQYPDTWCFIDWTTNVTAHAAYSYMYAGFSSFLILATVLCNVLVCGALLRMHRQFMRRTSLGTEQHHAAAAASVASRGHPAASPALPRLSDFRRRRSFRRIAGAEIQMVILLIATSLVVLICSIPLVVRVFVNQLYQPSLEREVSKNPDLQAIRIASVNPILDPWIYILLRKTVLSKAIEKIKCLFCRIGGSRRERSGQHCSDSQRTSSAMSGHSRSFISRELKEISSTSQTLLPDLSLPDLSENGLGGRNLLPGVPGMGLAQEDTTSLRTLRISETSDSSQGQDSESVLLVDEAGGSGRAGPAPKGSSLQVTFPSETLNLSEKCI

| SMILES | Ki (rEP1 Receptor) [µM] | Ki (EP2 Receptor) [µM] | Ki (rEP3 Receptor) [µM] | Ki (EP4 Receptor) [nM] |
| --- | --- | --- | --- | --- |
| CC1(C)C[C@H](/C=C/C(O)c2ccc(C(F)(F)F)o2)N(CCCCCCC(=O)O)C1=O (stereo partly drawn) [Compound 55, 7-{(R)-5-[(E)-3-hydroxy-3-(5-trifluoromethyl-furan-2-yl)-propenyl]-3,3-dimethyl-2-oxo-pyrrolidin-1-yl}-heptanoic acid] | > 100 | > 100 | > 100 | 7 |
| COCc1cccc(CC(O)/C=C/[C@H]2CC(C)(C)C(=O)N2CCCCCCC(=O)O)c1 (stereo partly drawn) [Compound 59, 7-{(R)-5-[(E)-3-Hydroxy-4-(3-methoxymethyl-phenyl)-but-1-enyl]-3,3-dimethyl-2-oxo-pyrrolidin-1-yl}-heptanoic acid] |  | > 100 | > 100 | 70 |
| O=C(O)CCCCCCN1C(=O)CC[C@@H]1/C=C/C(O)c1cccc(Oc2ccc(Cl)cc2)c1 (stereo partly drawn) [Compound 74, 7-((R)-2-{(E)-3-[3-(4-chloro-phenoxy)-phenyl]-3-hydroxy-propenyl}-5-oxo-pyrrolidin-1-yl)-heptanoic acid] |  | 22.9 | 47 | 10 |
| CCCCC[C@H](O)/C=C/[C@H]1CCC(=O)N1CCc1ccc(C(=O)O)cc1 [Compound 76, 4-{2-[(R)-2-((E)-3-Hydroxy-oct-1-enyl)-5-oxo-pyrrolidin-1-yl]-ethyl}-benzoic Acid] |  | 0.13 | 11 | 1.2 |
| Cc1cc(Cl)ccc1-c1cccc([C@H](O)CC[C@H]2CCC(=O)N2CCc2ccc(C(=O)O)cc2)c1 [Compound 81, 4-(2-{(S)-2-[(R)-3-(4′-Chloro-2′-methyl-biphenyl-3-yl)-3-hydroxy-propyl]-5-oxo-pyrrolidin-1-yl}-ethyl)-benzoic acid] |  | 5.1 | 54 | 0.94 |
| CCCCCC(O)/C=C/[C@H]1CCC(=O)N1CCc1ccc(C(=O)O)s1 (stereo partly shown) [Compound 82] |  | 3.7 | > 100 | 69 |
